These results are taken from article PMC4515825, “Molecular mechanisms of the non-coenzyme action of thiamin in brain: biochemical, structural and pathway analysis” (Scientific Reports, 2015).

Each structure is given as a SMILES string.

A word on the Ki: it is a measure of affinity in units of concentration, obtained from inhibition or displacement.

Assay [1] addresses T1, pyridoxal kinase (PdxK) (Homo sapiens, UniProt O00764).
T1 sequence (O00764 1-312): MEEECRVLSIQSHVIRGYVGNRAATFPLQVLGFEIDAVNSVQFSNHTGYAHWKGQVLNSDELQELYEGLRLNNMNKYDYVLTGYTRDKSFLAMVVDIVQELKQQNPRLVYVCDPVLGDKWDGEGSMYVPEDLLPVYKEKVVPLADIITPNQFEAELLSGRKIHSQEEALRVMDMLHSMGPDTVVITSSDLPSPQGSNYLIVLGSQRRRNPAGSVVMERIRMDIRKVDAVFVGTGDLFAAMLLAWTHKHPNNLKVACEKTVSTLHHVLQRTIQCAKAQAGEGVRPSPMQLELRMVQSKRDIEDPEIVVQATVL
Put plainly: enzyme activity assay. It counts as biochemical. The arrangement: human recombinant.

Assay [2] deals with T1, pyridoxal kinase (PdxK). Put plainly: steady-state enzyme kinetics ([…] nm), Lineweaver-Burk and secondary plots. It counts as biochemical. The arrangement: wild-type human recombinant.

Turning to `CCCCCCCCCCOC(=O)C[n+]1csc(CCO)c1C` [DMHT, 3-decyloxycarbonylmethyl-4-methyl-5-(2-hydroxyethyl) thiazolium], the enzyme activity assay result on pyridoxal kinase (PdxK) [1] is reported as “Figure 2B shows that both compounds affected PdxK activity, supporting the direct interaction of the enzyme”.

In the case of `Cc1ncc(C[n+]2csc(CCOP(=O)([O-])OP(=O)(O)O)c2C)c(N)n1` [thiamin diphosphate], on pyridoxal kinase (PdxK) [2], the Ki stood at 3300 µM.

Take `Cc1ncc(C[n+]2csc(CCO)c2C)c(N)n1` [thiamin]: the Ki on pyridoxal kinase (PdxK) [2] is 2200 µM.
